Data from patent US20260001928A1 (CORTERIA PHARMACEUTICALS, priority 2022, published 2026).
*1 amine or outer side, *2 acyl side, *3 side chain or, on linkers, in order; H or OH if unused. Where a SMILES comes first, the peptide text is derived from it. Side-chain parts run from the residue outwards. [ ]: non-standard residue; d: D form. The star is where a group is joined. C18 diacid = O=C(O)CCCCCCCCCCCCCCCCC(=O)*; γGlu = O=C(O)[C@H](CCC(=O)[*:2])N[*:1]; NMeI = CC[C@H](C)[C@H](NC)C(=O)O; Pentanoyl = CCCCC(=O)*; AEEA = NCCOCCOCC(=O)O; Aib = CC(C)(N)C(=O)O

Legend:
human CRF2a receptor = target: T1, human CRF2a receptor (Homo sapiens, UniProt Q13324); experiment: Activity at human CRF2a receptor, cAMP functional assay in TeloHEAC cells; format: cell-based; conditions: TeloHEAC cells stably expressing human CRF2a receptor, relative to urocortin 2 (100 nM = 100%)
T1 construct: expressed in transfected cells; host or cells: TeloHEAC cells
T1 sequence (Q13324 1-411): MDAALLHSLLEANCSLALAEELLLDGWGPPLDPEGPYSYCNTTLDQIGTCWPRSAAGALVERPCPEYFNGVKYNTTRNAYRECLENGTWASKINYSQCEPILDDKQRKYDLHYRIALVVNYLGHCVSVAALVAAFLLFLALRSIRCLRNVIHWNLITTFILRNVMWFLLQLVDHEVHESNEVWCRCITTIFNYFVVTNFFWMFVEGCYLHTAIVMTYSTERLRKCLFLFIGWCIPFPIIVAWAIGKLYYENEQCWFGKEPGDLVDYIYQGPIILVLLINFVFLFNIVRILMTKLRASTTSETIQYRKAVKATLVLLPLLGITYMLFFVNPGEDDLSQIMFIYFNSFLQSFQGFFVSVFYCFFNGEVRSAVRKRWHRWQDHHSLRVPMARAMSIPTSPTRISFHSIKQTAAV
Method in brief: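 cAMP accumulation was measured by HTRF 665/620 nm ratio after 30 min at 37° C compound exposure (16 twofold dilutions) of CRF2a-expressing TeloHEAC cells, 10000/well, in HEPES-buffered HBSS plus IBMX. Activity was normalised to urocortin 2 at 100 nM (100%), and EC50 was the concentration giving half-maximal activation.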

CFR1R receptor = target: T2, CFR1R receptor (Homo sapiens, UniProt P34998); experiment: Activity at anti-target CFR1R receptor, cAMP assay in CRF1R-overexpression CHO-K1 cells; format: cell-based; conditions: 100% = Sauvagine at 100 nM; for EC50: cAMP
T2 construct: host or cells: CHO-K1 (clone 2)
T2 sequence (P34998 24-415): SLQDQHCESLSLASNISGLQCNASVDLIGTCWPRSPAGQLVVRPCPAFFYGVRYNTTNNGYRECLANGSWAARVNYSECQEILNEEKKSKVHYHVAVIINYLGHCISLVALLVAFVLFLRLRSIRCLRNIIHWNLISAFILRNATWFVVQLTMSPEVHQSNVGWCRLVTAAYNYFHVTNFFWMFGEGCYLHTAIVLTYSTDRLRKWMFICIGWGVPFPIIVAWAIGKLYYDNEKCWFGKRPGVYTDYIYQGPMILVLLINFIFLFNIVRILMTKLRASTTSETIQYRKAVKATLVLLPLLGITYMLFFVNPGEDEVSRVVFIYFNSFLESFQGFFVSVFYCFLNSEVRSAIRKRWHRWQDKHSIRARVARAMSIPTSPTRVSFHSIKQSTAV
Method in brief: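 Uses frozen stocks of CHO-K1 clone 2 cells overexpressing human CRF1R, plated at 4000 cells/well final, with cAMP measured by the same protocol as the TeloHAEC line. Full-activation control: 100 nM Sauvagine.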

EC50 (human CRF2a receptor) | Emax (% I) (CFR1R receptor) | EC50 (CFR1R receptor) | SMILES
1.28 nM | 5 % I | > 250 nM | CC[C@H](C)[C@H](NC(C)=O)C(=O)N[C@H](C(=O)N[C@@H](CC(C)C)C(=O)N[C@@H](CO)C(=O)N[C@@H](CC(C)C)C(=O)N[C@@H](CC(=O)O)C(=O)N[C@@H](C(=O)N1CCC[C@H]1C(=O)N[C@H](C(=O)N[C@@H](CCCCN)C(=O)N[C@@H](CC(C)C)C(=O)N[C@@H](CCCCNC(=O)COCCOCCNC(=O)COCCOCCNC(=O)CC[C@H](NC(=O)CCCCCCCCCCCCCCCCC(=O)O)C(=O)O)C(=O)N[C@@H](CCCCN)C(=O)N[C@H](C(=O)N[C@@H](CC(C)C)C(=O)N[C@@H](CC(C)C)C(=O)N[C@@H](CCC(=O)O)C(=O)N[C@@H](CCC(N)=O)C(=O)N[C@@H](CCC(=O)O)C(=O)N[C@@H](CCCCN)C(=O)N[C@@H](CCC(N)=O)C(=O)N[C@@H](CCCCN)C(=O)NC(C)(C)C(=O)N[C@@H](CCC(N)=O)C(=O)N[C@@H](CCCNC(=N)N)C(=O)N[C@@H](CCC(=O)O)C(=O)N[C@@H](CCC(N)=O)C(=O)N[C@@H](C)C(=O)N[C@@H](CCC(=O)O)C(=O)N[C@H](C(=O)N[C@@H](CC(N)=O)C(=O)NC(C)(C)C(=O)N[C@@H](CCC(N)=O)C(=O)N[C@H](C(=O)N[C@@H](CC(C)C)C(=O)N[C@@H](C)C(=O)N[C@@H](CCC(N)=O)C(=O)N[C@H](C(N)=O)C(C)C)[C@@H](C)CC)[C@@H](C)O)[C@@H](C)CC)[C@@H](C)CC)C(C)C)C(C)C [compound 197] (Ac-IVLSLD[dV]PIKLK([AEEA-AEEA-γGlu-C18 diacid])KILLEQEKQK[Aib]QREQAETN[Aib]QILAQV-NH2)
0.71 nM | 2 % I | > 250 nM | CC[C@H](C)[C@H](NC)C(=O)N[C@H](C(=O)N[C@@H](CC(C)C)C(=O)N[C@@H](CO)C(=O)N[C@@H](CC(C)C)C(=O)N[C@@H](CC(=O)O)C(=O)N[C@@H](C(=O)N1CCC[C@H]1C(=O)N[C@H](C(=O)N[C@@H](CCCCN)C(=O)N[C@@H](CC(C)C)C(=O)N[C@@H](CCCCNC(=O)COCCOCCNC(=O)COCCOCCNC(=O)CC[C@H](NC(=O)CCCCCCCCCCCCCCCCC(=O)O)C(=O)O)C(=O)N[C@@H](CCCCN)C(=O)N[C@H](C(=O)N[C@@H](CC(C)C)C(=O)N[C@@H](CC(C)C)C(=O)N[C@@H](CCC(=O)O)C(=O)N[C@@H](CCC(N)=O)C(=O)N[C@@H](CCC(=O)O)C(=O)N[C@@H](CCCCN)C(=O)N[C@@H](CCC(N)=O)C(=O)N[C@@H](CCCCN)C(=O)NC(C)(C)C(=O)N[C@@H](CCC(N)=O)C(=O)N[C@@H](CCCNC(=N)N)C(=O)N[C@@H](CCC(=O)O)C(=O)N[C@@H](CCC(N)=O)C(=O)N[C@@H](C)C(=O)N[C@@H](CCC(=O)O)C(=O)N[C@H](C(=O)N[C@@H](CC(N)=O)C(=O)NC(C)(C)C(=O)N[C@@H](CCC(N)=O)C(=O)N[C@H](C(=O)N[C@@H](CC(C)C)C(=O)N[C@@H](C)C(=O)N[C@@H](CCC(N)=O)C(=O)N[C@H](C(N)=O)C(C)C)[C@@H](C)CC)[C@@H](C)O)[C@@H](C)CC)[C@@H](C)CC)C(C)C)C(C)C [compound 200] (H-[NMeI]VLSLD[dV]PIKLK([AEEA-AEEA-γGlu-C18 diacid])KILLEQEKQK[Aib]QREQAETN[Aib]QILAQV-NH2)
1.37 nM | 5 % I | > 250 nM | CCCCC(=O)N[C@H](C(=O)N[C@@H](CC(C)C)C(=O)N[C@@H](CO)C(=O)N[C@@H](CC(C)C)C(=O)N[C@@H](CC(=O)O)C(=O)N[C@@H](C(=O)N1CCC[C@H]1C(=O)N[C@H](C(=O)N[C@@H](CCCCN)C(=O)N[C@@H](CC(C)C)C(=O)N[C@@H](CCCCNC(=O)COCCOCCNC(=O)COCCOCCNC(=O)CC[C@H](NC(=O)CCCCCCCCCCCCCCCCC(=O)O)C(=O)O)C(=O)N[C@@H](CCCCN)C(=O)N[C@H](C(=O)N[C@@H](CC(C)C)C(=O)N[C@@H](CC(C)C)C(=O)N[C@@H](CCC(=O)O)C(=O)N[C@@H](CCC(N)=O)C(=O)N[C@@H](CCC(=O)O)C(=O)N[C@@H](CCCCN)C(=O)N[C@@H](CCC(N)=O)C(=O)N[C@@H](CCCCN)C(=O)N[C@@H](CCCCN)C(=O)N[C@@H](CCC(N)=O)C(=O)N[C@@H](CCCNC(=N)N)C(=O)N[C@@H](CCC(=O)O)C(=O)N[C@@H](CCC(N)=O)C(=O)N[C@@H](C)C(=O)N[C@@H](CCC(=O)O)C(=O)N[C@H](C(=O)N[C@@H](CC(N)=O)C(=O)NC(C)(C)C(=O)N[C@@H](CCC(N)=O)C(=O)N[C@H](C(=O)N[C@@H](CC(C)C)C(=O)N[C@@H](C)C(=O)N[C@@H](CCC(N)=O)C(=O)N[C@H](C(N)=O)C(C)C)[C@@H](C)CC)[C@@H](C)O)[C@@H](C)CC)[C@@H](C)CC)C(C)C)C(C)C [compound 201] (Pentanoyl-VLSLD[dV]PIKLK([AEEA-AEEA-γGlu-C18 diacid])KILLEQEKQKKQREQAETN[Aib]QILAQV-NH2)
1.73 nM | 8 % I | > 250 nM | CCCCC(=O)N[C@H](C(=O)N[C@@H](CC(C)C)C(=O)N[C@@H](CO)C(=O)N[C@@H](CC(C)C)C(=O)N[C@@H](CC(=O)O)C(=O)N[C@@H](C(=O)N1CCC[C@H]1C(=O)N[C@H](C(=O)N[C@@H](CCCCN)C(=O)N[C@@H](CC(C)C)C(=O)N[C@@H](CCCCNC(=O)COCCOCCNC(=O)COCCOCCNC(=O)CC[C@H](NC(=O)CCCCCCCCCCCCCCCCC(=O)O)C(=O)O)C(=O)N[C@@H](CCCCN)C(=O)N[C@H](C(=O)N[C@@H](CC(C)C)C(=O)N[C@@H](CC(C)C)C(=O)N[C@@H](CCC(=O)O)C(=O)N[C@@H](CCC(N)=O)C(=O)N[C@@H](CCC(=O)O)C(=O)N[C@@H](CCCCN)C(=O)N[C@@H](CCC(N)=O)C(=O)N[C@@H](CCCCN)C(=O)NC(C)(C)C(=O)N[C@@H](CCC(N)=O)C(=O)N[C@@H](CCCNC(=N)N)C(=O)N[C@@H](CCC(=O)O)C(=O)N[C@@H](CCC(N)=O)C(=O)N[C@@H](C)C(=O)N[C@@H](CCC(=O)O)C(=O)N[C@H](C(=O)N[C@@H](CC(N)=O)C(=O)NC(C)(C)C(=O)N[C@@H](CCC(N)=O)C(=O)N[C@H](C(=O)N[C@@H](CC(C)C)C(=O)N[C@@H](C)C(=O)N[C@@H](CCC(N)=O)C(=O)N[C@H](C(N)=O)C(C)C)[C@@H](C)CC)[C@@H](C)O)[C@@H](C)CC)[C@@H](C)CC)C(C)C)C(C)C [compound 202] (Pentanoyl-VLSLD[dV]PIKLK([AEEA-AEEA-γGlu-C18 diacid])KILLEQEKQK[Aib]QREQAETN[Aib]QILAQV-NH2)
1.84 nM | −2 % I | > 250 nM | CC[C@H](C)[C@H](NC(C)=O)C(=O)N[C@H](C(=O)N[C@@H](CC(C)C)C(=O)N[C@@H](CO)C(=O)N[C@@H](CC(C)C)C(=O)N[C@@H](CC(=O)O)C(=O)N[C@@H](C(=O)N1CCC[C@H]1C(=O)N[C@H](C(=O)N[C@@H](CCCCN)C(=O)N[C@@H](CC(C)C)C(=O)N[C@@H](CCCCNC(=O)COCCOCCNC(=O)COCCOCCNC(=O)CC[C@H](NC(=O)CC[C@H](NC(=O)CCCCCCCCCCCCCCCCC(=O)O)C(=O)O)C(=O)O)C(=O)N[C@@H](CCCCN)C(=O)N[C@H](C(=O)N[C@@H](CC(C)C)C(=O)N[C@@H](CC(C)C)C(=O)N[C@@H](CCC(=O)O)C(=O)N[C@@H](CCC(N)=O)C(=O)N[C@@H](CCC(=O)O)C(=O)N[C@@H](CCCCN)C(=O)N[C@@H](CCC(N)=O)C(=O)N[C@@H](CCCCN)C(=O)N[C@@H](CCCCN)C(=O)N[C@@H](CCC(N)=O)C(=O)N[C@@H](CCCNC(=N)N)C(=O)N[C@@H](CCC(=O)O)C(=O)N[C@@H](CCC(N)=O)C(=O)N[C@@H](C)C(=O)N[C@@H](CCC(=O)O)C(=O)N[C@H](C(=O)N[C@@H](CC(N)=O)C(=O)NC(C)(C)C(=O)N[C@@H](CCC(N)=O)C(=O)N[C@H](C(=O)N[C@@H](CC(C)C)C(=O)N[C@@H](C)C(=O)N[C@@H](CCC(N)=O)C(=O)N[C@H](C(N)=O)C(C)C)[C@@H](C)CC)[C@@H](C)O)[C@@H](C)CC)[C@@H](C)CC)C(C)C)C(C)C [compound 204] (Ac-IVLSLD[dV]PIKLK([AEEA-AEEA-γGlu-γGlu-C18 diacid])KILLEQEKQKKQREQAETN[Aib]QILAQV-NH2)
